Experimental data: ChEMBL document CHEMBL1143921, “Structure-based design and synthesis of benzimidazole derivatives as dipeptidyl peptidase IV inhibitors” (Bioorg Med Chem Lett, 2008)

Key:
[1] = in vitro; settings: rat, liver microsomes
[2] = in vitro; settings: human, liver microsomes
[3] = AUC in rat at 8.4 mg/kg, po; assay type: ADME, organism-based; set-up: dose 8.4 mg/kg, route oral; settings: plasma
[4] = Bioavailability in rat at 8.4 mg/kg, po; assay type: ADME, organism-based; settings: in vivo
[5] = Volume of distribution at steady state in rat at 0.7 mg/kg, iv or 8.4 mg/kg, po; assay type: ADME, organism-based; settings: in vivo, read-out: Vdss
[6] = Half life in rat at 0.7 mg/kg, iv; assay type: ADME, organism-based; set-up: dose 0.7 mg/kg, route intravenous; settings: in vivo
[7] = Half life in rat at 8.4 mg/kg, po; assay type: ADME, organism-based; set-up: dose 8.4 mg/kg, route oral; settings: in vivo
[8] = Half life in rat at 0.8 mg/kg, iv; assay type: ADME, organism-based; set-up: dose 0.8 mg/kg, route intravenous; settings: in vivo
[9] = Half life in rat at 8 mg/kg, po; assay type: ADME, organism-based; set-up: dose 8 mg/kg, route oral; settings: in vivo
[10] = Volume of distribution at steady state in rat at 0.8 mg/kg, iv or 8 mg/kg, po; assay type: ADME, organism-based; settings: in vivo, read-out: Vdss
[11] = AUC in rat at 8 mg/kg, po; assay type: ADME, organism-based; set-up: dose 8 mg/kg, route oral; settings: plasma
[12] = Bioavailability in rat at 8 mg/kg, po; assay type: ADME, organism-based; settings: in vivo
[13] = Bioavailability in rat at 11.6 mg/kg, po; assay type: ADME, organism-based; settings: in vivo
[14] = Volume of distribution at steady state in rat at 1.0 mg/kg, iv or 11.6 mg/kg, po; assay type: ADME, organism-based; settings: in vivo, read-out: Vdss
[15] = Half life in rat at 1.0 mg/kg, iv; assay type: ADME, organism-based; set-up: dose 1 mg/kg, route intravenous; settings: in vivo
[16] = AUC in rat at 11.6 mg/kg, po; assay type: ADME, organism-based; set-up: dose 11.6 mg/kg, route oral; settings: plasma
[17] = Half life in rat at 11.6 mg/kg, po; assay type: ADME, organism-based; set-up: dose 11.6 mg/kg, route oral; settings: in vivo

SMILES	half-life [1] [h]	half-life [2] [h]	other results
NCc1c(-c2ccccc2Cl)ccc2ncn(Cc3ccccc3)c12	0.0667	0.133	–
Cn1c(=O)[nH]c2ccc(-c3ccccc3Cl)c(CN)c21	1.27	> 3.33	AUC [3]: 9000 ng·h/mL; bioavailability [4]: 49%; Vd [5]: 1.14 L/kg; half-life [6]: 4.2 h; half-life [7]: 4 h
Cn1cnc2ccc(-c3ccc(Cl)cc3Cl)c(CN)c21	0.767	> 3.33	half-life [8]: 7 h; half-life [9]: 4.4 h; Vd [10]: 4.81 L/kg; AUC [11]: 11500 ng·h/mL; bioavailability [12]: 100%
Cn1cnc2cc(Br)c(-c3ccccc3Cl)c(CN)c21	0.4	2.93	–
CCn1cnc2ccc(-c3ccc(Cl)cc3Cl)c(CN)c21	0.7	> 3.33	–
Cn1cnc2ccc(-c3ccccc3Cl)c(CN)c21	0.95	> 3.33	–
Cn1cnc2cc(C#N)c(-c3ccccc3Cl)c(CN)c21	0.633	> 3.33	bioavailability [13]: 122%; Vd [14]: 1.07 L/kg; half-life [15]: 3.8 h; AUC [16]: 22100 ng·h/mL; half-life [17]: 2.9 h
Cc1nc2ccc(-c3ccccc3Cl)c(CN)c2n1C	0.117	> 3.33	–
Cn1cnc2cc(C(N)=O)c(-c3ccccc3Cl)c(CN)c21	> 3.33	> 3.33	–
Cn1cnc2ccc(-c3ccccc3CO)c(CN)c21	0.65	1.67	–
COCc1nc2ccc(-c3ccccc3Cl)c(CN)c2n1C	0.183	> 3.33	–
NCc1c(-c2ccccc2Cl)ccc2ncn(CCO)c12	0.533	> 3.33	–
CCc1nc2ccc(-c3ccccc3Cl)c(CN)c2n1C	0.0333	> 3.33	–
Cn1c(-c2cccnc2)nc2ccc(-c3ccccc3Cl)c(CN)c21	0.433	1.6	–
Cn1nnc2ccc(-c3ccccc3Cl)c(CN)c21	0.217	0.483	–
Cn1cnc2ccc(-c3ccccc3)c(CN)c21	0.767	1.55	–
Cc1ccccc1-c1ccc2ncn(C)c2c1CN	0.467	3.05	–
NCc1c(-c2ccc(Cl)cc2Cl)ccc2nc[nH]c12	0.767	2.15	–
